Test results from patent US20080076760A1, “2,3,4,5-TETRAHYDRO-1H-1,5-BENZODIAZEPINE DERIVATIVE AND MEDICINAL COMPOSITION” (priority 2004, published 2008).

Legend:
[1] = target: human vasopressin V2 receptor (Homo sapiens, UniProt P30518); assay: Receptor binding study, [3H]AVP displacement on CHO cell membranes, human V2; details: [3H]AVP displacement, CHO cell membrane, 25° C., one hour; read-out: Human V2 Ki
Description: Preparation of Chinese hamster ovary (Cho) cell which expresses human vasopressin receptor subtype and production of membrane sample of the cell was conducted according to the method of Tahara et al. (Br. J. Pharmacol., 125, 1463-1470, 1998).
(§1) (ii) Receptor Binding Study
In saturation binding experiment, the membrane sample and [^3H]AVP of several concentrations (0.125 nM to 4.0 nM) were mixed and incubated in microplate wells. In displacement experiment, [^3H]AVP of constant concentrations (0.5 nM to 1.0 nM) and the membrane sample were mixed with Compound A of several concentrations, and incubation was performed. Assay was performed using 50 mM of Tris-HCl (pH=7.4) (total amount: 250 μL) (buffer composition: containing […] of MgCl2 and 0.1% BSA), and incubation was performed at room temperature (25° C.) for one hour. After incubation, suck filtration was immediately performed and reaction was completed when the membrane sample was collected on a glass fiber filter fitted with the microplate. After the filter was washed with an ice-cold Tris-HCl buffer (50 mM Tris-HCl, 10 mM MgCl2, pH 7.4), radioactivity measurement was performed. Nonspecific binding was determined using nonradioactive-labeled AVP (1 μM).

[2] = target: human vasopressin V1a receptor (Homo sapiens, UniProt P37288); assay: Receptor binding study, [3H]AVP displacement on CHO cell membranes, human V1a; details: [3H]AVP displacement, CHO cell membrane, 25° C., one hour; read-out: Human V1a Ki
Description: as §1
Assay was performed using 50 mM of Tris-HCl (pH=7.4) (total amount: 250 μL) (buffer composition: containing […] of MgCl2 and 0.1% BSA), and incubation was performed at room temperature (25° C.) for one hour. After incubation, suck filtration was immediately performed and reaction was completed when the membrane sample was collected on a glass fiber filter fitted with the microplate. After the filter was washed with an ice-cold Tris-HCl buffer (50 mM Tris-HCl, 10 mM MgCl2, pH 7.4), radioactivity measurement was performed. Nonspecific binding was determined using nonradioactive-labeled AVP (1 μM).

Chain of human vasopressin V1a receptor (P37288 whole entry): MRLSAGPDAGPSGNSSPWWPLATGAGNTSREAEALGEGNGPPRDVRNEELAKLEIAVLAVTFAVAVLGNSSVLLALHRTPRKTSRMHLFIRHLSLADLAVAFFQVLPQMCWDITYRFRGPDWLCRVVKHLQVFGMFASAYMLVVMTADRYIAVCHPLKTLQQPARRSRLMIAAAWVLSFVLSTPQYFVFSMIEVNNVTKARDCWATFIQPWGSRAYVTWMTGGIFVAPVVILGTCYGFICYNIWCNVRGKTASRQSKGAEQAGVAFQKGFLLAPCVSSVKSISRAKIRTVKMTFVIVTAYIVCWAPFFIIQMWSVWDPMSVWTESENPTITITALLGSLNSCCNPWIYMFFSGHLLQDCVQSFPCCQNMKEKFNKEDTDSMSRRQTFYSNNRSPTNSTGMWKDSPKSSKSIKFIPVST
Chain of human vasopressin V2 receptor (P30518 whole entry): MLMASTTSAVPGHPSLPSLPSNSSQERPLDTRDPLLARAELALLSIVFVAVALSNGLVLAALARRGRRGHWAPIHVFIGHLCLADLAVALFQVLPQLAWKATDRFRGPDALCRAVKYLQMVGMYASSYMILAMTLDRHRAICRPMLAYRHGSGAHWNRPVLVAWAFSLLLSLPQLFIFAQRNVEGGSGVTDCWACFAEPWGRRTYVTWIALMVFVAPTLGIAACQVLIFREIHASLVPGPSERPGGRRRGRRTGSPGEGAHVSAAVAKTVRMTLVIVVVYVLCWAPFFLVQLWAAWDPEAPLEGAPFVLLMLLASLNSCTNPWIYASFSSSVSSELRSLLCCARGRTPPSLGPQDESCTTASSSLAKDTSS

Row | Ki [1] [nM] | Ki [2] [nM] | Structure (SMILES)
1 | 3.6 | 0.41 | C[C@@H]1CCN(C(=O)c2ccc(-c3ccc4[nH]ccc4c3)c(OCCN3CCOCC3)c2)c2ccccc2N1 [Example 66, (4R)-1-[4-(1H-indol-5-yl)-3-[2-(4-morpholinyl)ethoxy]benzoyl]-4-methyl-2,3,4,5-tetrahydro-1H-1,5-benzodiazepine]
2 | 17 | 0.24 | C[C@H]1CCN(C(=O)c2ccc(-c3ccc4[nH]ccc4c3)c(OCCCCCN3CCOCC3)c2)c2ccccc2N1 [Example 69, (4S)-1-[4-(1H-indol-5-yl)-3-[[5-(4-morpholinyl)pentyl]oxy]benzoyl]-4-methyl-2,3,4,5-tetrahydro-1H-1,5-benzodiazepine]
3 | 6.9 | 0.19 | C[C@H]1CCN(C(=O)c2ccc(-c3ccc4[nH]ccc4c3)c(OCCCN3CCN(C)CC3)c2)c2ccccc2N1 [Example 70, (4S)-1-[4-(1H-indol-5-yl)-3-[3-(4-methyl-1-piperazinyl)propoxy]benzoyl]-4-methyl-2,3,4,5-tetrahydro-1H-1,5-benzodiazepine]
4 | 11 | 0.16 | C[C@H]1CCN(C(=O)c2ccc(-c3ccc4[nH]ccc4c3)c(OCCCN3CCCCC3)c2)c2ccccc2N1 [Example 71, (4S)-1-[4-(1H-indol-5-yl)-3-[3-(1-piperidinyl)propoxy]benzoyl]-4-methyl-2,3,4,5-tetrahydro-1H-1,5-benzodiazepine]
5 | 4.6 | 0.19 | CC(=O)N1CCN(CCCOc2cc(C(=O)N3CC[C@H](C)Nc4ccccc43)ccc2-c2ccc3[nH]ccc3c2)CC1 [Example 73, (4S)-1-[3-[3-(4-acetyl-1-piperazinyl)propoxy]-4-(1H-indol-5-yl)]-4-methyl-2,3,4,5-tetrahydro-1H-1,5-benzodiazepine]
6 | 6.1 | 0.24 | CNc1ccc(-c2ccc(C(=O)N3CC[C@H](C)Nc4ccccc43)cc2OCCN2CCOCC2)cc1 [Example 74, N-methyl-4′-[[(4S)-4-methyl-2,3,4,5-tetrahydro-1H-1,5-benzodiazepin-1-yl]carbonyl]-2′-[2-(4-morpholinyl)ethoxy][1,1′-biphenyl]-4-amine]
7 | 12 | 0.11 | C[C@H]1CCN(C(=O)c2ccc(-c3ccc4[nH]ccc4c3)c(OCCCN(C)C)c2)c2ccccc2N1 [Example 78, N-[3-[2-(1H-indol-5-yl)-5-[[(4S)-4-methyl-2,3,4,5-tetrahydro-1H-1,5-benzodiazepin-1-yl]carbonyl]phenoxy]propyl]-N,N-dimethylamine]
8 | 16 | 0.13 | CCCN(CCC)CCCOc1cc(C(=O)N2CC[C@H](C)Nc3ccccc32)ccc1-c1ccc2[nH]ccc2c1 [Example 79, N-[3-[2-(1H-indol-5-yl)-5-[[(4S)-4-methyl-2,3,4,5-tetrahydro-1H-1,5-benzodiazepin-1-yl]carbonyl]phenoxy]propyl]-N,N-dipropylamine]
9 | 5.1 | 0.064 | CC1CN(CCCOc2cc(C(=O)N3CC[C@H](C)Nc4ccccc43)ccc2-c2ccc3[nH]ccc3c2)CC(C)O1 (stereo partly drawn) [Example 80, (4S)-1-[3-[3-(2,6-dimethyl-4-morpholinyl)propoxy]-4-(1H-indol-5-yl)benzoyl]-4-methyl-2,3,4,5-tetrahydro-1H-1,5-benzodiazepine]
10 | 8 | 0.17 | CCCN(C)CCCOc1cc(C(=O)N2CC[C@H](C)Nc3ccccc32)ccc1-c1ccc2[nH]ccc2c1 [Example 81, N-[3-[2-(1H-indol-5-yl)-5-[[(4S)-4-methyl-2,3,4,5-tetrahydro-1H-1,5-benzodiazepin-1-yl]carbonyl]phenoxy]propyl]-N-methyl-N-propylamine]
11 | 16 | 0.16 | C[C@H]1CCN(C(=O)c2ccc(-c3ccc4[nH]ccc4c3)c(OCCCN(C)C(C)(C)C)c2)c2ccccc2N1 [Example 82, N-(tert-butyl)-N-[3-[2-(1H-indol-5-yl)-5-[[(4S)-4-methyl-2,3,4,5-tetrahydro-1H-1,5-benzodiazepin-1-yl]carbonyl]phenoxy]propyl]-N-methylamine]
12 | 17 | 0.13 | C[C@H]1CCN(C(=O)c2ccc(-c3ccc4[nH]ccc4c3)c(OCCCN3CCC(C(N)=O)CC3)c2)c2ccccc2N1 [Example 83, 1-[3-[2-(1H-indol-5-yl)-5-[[(4S)-4-methyl-2,3,4,5-tetrahydro-1H-1,5-benzodiazepin-1-yl]carbonyl]phenoxy]propyl]-4-piperidine carboxamide]
13 | 6.5 | 0.1 | COCCN(CCCOc1cc(C(=O)N2CC[C@H](C)Nc3ccccc32)ccc1-c1ccc2[nH]ccc2c1)CCOC [Example 84]
14 | 7.7 | 0.052 | CC(C)N(C)CCCOc1cc(C(=O)N2CC[C@H](C)Nc3ccccc32)ccc1-c1ccc2[nH]ccc2c1 [Example 85, N-[3-[2-(1H-indol-5-yl)-5-[[(4S)-4-methyl-2,3,4,5-tetrahydro-1H-1,5-benzodiazepin-1-yl]carbonyl]phenoxy]propyl]-N-isopropyl-N-methylamine]
15 | 8.7 | 0.086 | C[C@H]1CCN(C(=O)c2ccc(-c3ccc4[nH]ccc4c3)c(OCCCN3CCC(NC=O)CC3)c2)c2ccccc2N1 [Example 87, 1-[3-[2-(1H-indol-5-yl)-5-[[(4S)-4-methyl-2,3,4,5-tetrahydro-1H-1,5-benzodiazepin-1-yl]carbonyl]phenoxy]propyl]-4-piperidinylformamide]
16 | 3 | 0.3 | C[C@H]1CCN(C(=O)c2ccc(-c3ccc4[nH]ccc4c3)c(OCCCN3CCC[C@H]3C(N)=O)c2)c2ccccc2N1 [Example 88, (2S)-1-[3[2-(1H-indol-5-yl)-5-[[(4S)-4-methyl-2,3,4,5-tetrahydro-1H-1,5-benzodiazepin-1-yl]carbonyl]phenoxy]propyl]-2-pyrrolidine carboxamide]
17 | 19 | 0.29 | C[C@H]1CCN(C(=O)c2ccc(-c3ccc4[nH]ccc4c3)c(NC(=O)N3CCOCC3)c2)c2ccccc2N1 [Example 89, N-[2-(1H-indol-5-yl)-5-[[(4S)-4-methyl-2,3,4,5-tetrahydro-1H-1,5-benzodiazepin-1-yl]carbonyl]phenyl]-4-morpholine carboxamide]
18 | 5.6 | 0.21 | C[C@H]1CCN(C(=O)c2ccc(-c3ccc4[nH]ccc4c3)c(OCCCN3CCOC3=O)c2)c2ccccc2N1 [Example 92, 3-[3-[2-(1H-indol-5-yl)-5-[[(4S)-4-methyl-2,3,4,5-tetrahydro-1H-1,5-benzodiazepin-1-yl]carbonyl]phenoxy]propyl]-1,3-oxazolidin-2-one]
19 | 0.73 | 0.21 | C[C@H]1CCN(C(=O)c2ccc(-c3ccc4[nH]ccc4c3)c(CN3CCOCC3)c2)c2ccccc2N1 [Example 94, (4S)-1-[4-(1H-indol-5-yl)-3-(4-morpholinylmethyl)benzoyl]-4-methyl-2,3,4,5-tetrahydro-1H-1,5-benzodiazepine]
20 | 0.39 | 0.13 | C[C@H]1CCN(C(=O)c2ccc(-c3ccc4[nH]ccc4c3)c(OCCCN3C(=O)CNC3=O)c2)c2ccccc2N1 [Example 97, 3-[3-[2-(1H-indol-5-yl)-5-[[(4S)-4-methyl-2,3,4,5-tetrahydro-1H-1,5-benzodiazepin-1-yl]carbonyl]phenoxy]propyl]-2,4-imidazolidinedion]
21 | 3.4 | 0.3 | CC(C)N1CCN(CCCOc2cc(C(=O)N3CC[C@H](C)Nc4ccccc43)ccc2-c2ccc3[nH]ccc3c2)CC1 [Example 99, (4S)-1-[4-(1H-indol-5-yl)-3-[3-(4-isopropyl-1-piperazinyl)propoxy]benzoyl]-4-methyl-2,3,4,5-tetrahydro-1H-1,5-benzodiazepine]
22 | 3.2 | 0.46 | C[C@H]1CCN(C(=O)c2ccc(-c3ccc4[nH]ccc4c3)c(OCCCN3C(=O)CSC3=O)c2)c2ccccc2N1 [Example 100, 3-[3-[2-(1H-indol-5-yl)-5-[[(4S)-4-methyl-2,3,4,5-tetrahydro-1H-1,5-benzodiazepin-1-yl]carbonyl]phenoxy]propyl]-1,3-thiazolidine-2,4-dione]
23 | 61 | 0.25 | C[C@H]1CCN(C(=O)c2ccc(-c3ccc4[nH]ccc4c3)c(C(=O)N3CCN(C)CC3)c2)c2ccccc2N1 [Example 102, (4S)-1-[4-(1H-indol-5-yl)-3-[(4-methyl-1-piperazinyl)carbonyl]benzoyl]-4-methyl-2,3,4,5-tetrahydro-1H-1,5-benzodiazepine]

Row | Structure (SMILES) | Ki [1] [nM] | Ki [2] [nM]
24 | C[C@H]1CCN(C(=O)c2ccc(-c3ccc4[nH]ccc4c3)c(OCCCCN3CCOCC3)c2)c2ccccc2N1 [Example 67, (4S)-1-[4-(1H-indol-5-yl)-3-[4-(4-morpholinyl)butoxy]benzoyl]-4-methyl-2,3,4,5-tetrahydro-1H-1,5-benzodiazepine] | 8.7 | 0.19
25 | C[C@H]1CCN(C(=O)c2ccc(-c3ccc4[nH]ccc4c3)c(OCCCCN3CCN(C)CC3)c2)c2ccccc2N1 [Example 103] | 3.6 | 0.24
